Test results as given in ChEMBL document CHEMBL1201862, “PubChem BioAssay data set” (2004).
Counter-ions that a name gives are not always drawn.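 Compound exposure: 48 hours, 5 concentrations, 96-well plates. Abbreviation: GI50, concentration required for 50% inhibition of growth.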 Active and inactive are the calls of the source. Cut-off read from the data, not from the text of the source: active = GI50 up to about 1.1 µM and inactive = higher.

What was measured:
Assay in all cases: growth of human tumour cells (NCI), 48 h
SN12C = system: SN12C
MOLT-4 = system: MOLT-4
ACHN = system: ACHN
HOP-62 = system: HOP-62
TK-10 = system: TK-10
UO-31 = system: UO-31
CAKI-1 = system: CAKI-1
OVCAR-8 = system: OVCAR-8
BT-549 = system: BT-549
HCC 2998 = system: HCC 2998
KM12 = system: KM12
SK-MEL-5 = system: SK-MEL-5
SF-268 = system: SF-268
UACC-257 = system: UACC-257
A498 = system: A498
RPMI-8226 = system: RPMI-8226
OVCAR-3 = system: OVCAR-3
LOX IMVI = system: LOX IMVI
NCI-H23 = system: NCI-H23
OVCAR-5 = system: OVCAR-5

| Compound | GI50 (SN12C) | GI50 (MOLT-4) | GI50 (ACHN) | GI50 (HOP-62) | GI50 (TK-10) | GI50 (UO-31) | GI50 (CAKI-1) | GI50 (OVCAR-8) | GI50 (BT-549) | GI50 (HCC 2998) | GI50 (KM12) | GI50 (SK-MEL-5) | GI50 (SF-268) | GI50 (UACC-257) | GI50 (A498) | GI50 (RPMI-8226) | GI50 (OVCAR-3) | GI50 (LOX IMVI) | GI50 (NCI-H23) | GI50 (OVCAR-5) |
| --- | --- | --- | --- | --- | --- | --- | --- | --- | --- | --- | --- | --- | --- | --- | --- | --- | --- | --- | --- | --- |
| CN(C)Cc1cc(/N=N/c2ccccc2Cl)ccc1O | 25.6 µM (inactive) | 5.48 µM (inactive) | 12.1 µM (inactive) | 10.7 µM (inactive) | 22.1 µM (inactive) | 12.9 µM (inactive) | 15.1 µM (inactive) | 6.05 µM (inactive) | 17 µM (inactive) | 13.5 µM (inactive) | 25.9 µM (inactive) | 11.9 µM (inactive) | 25.1 µM (inactive) | 21.1 µM (inactive) | 12.7 µM (inactive) | 23.7 µM (inactive) | 18 µM (inactive) | 12.6 µM (inactive) | 24.7 µM (inactive) | 22.9 µM (inactive) |
| O=C(O)CCC(NC(=O)c1ccc(Nc2cnc3ccc(C(F)(F)F)cc3n2)cc1)C(=O)O (stereo not given) | > 100 µM (inactive) | > 100 µM (inactive) | > 100 µM (inactive) | > 100 µM (inactive) | > 100 µM (inactive) | > 100 µM (inactive) | > 100 µM (inactive) | > 100 µM (inactive) | > 100 µM (inactive) | > 100 µM (inactive) | > 100 µM (inactive) | > 100 µM (inactive) | > 100 µM (inactive) | > 100 µM (inactive) | > 100 µM (inactive) | > 100 µM (inactive) | > 100 µM (inactive) | > 100 µM (inactive) | > 100 µM (inactive) | > 100 µM (inactive) |
| COc1ccccc1NC(=S)N/N=C/c1cccc(C)n1 | 7.1 µM (inactive) | 1.34 µM (inactive) | 2.71 µM (inactive) | 5.85 µM (inactive) | 8.99 µM (inactive) | 3.57 µM (inactive) | 4.75 µM (inactive) | 4.07 µM (inactive) | 15.1 µM (inactive) | 10.5 µM (inactive) | 6.25 µM (inactive) | 4.17 µM (inactive) | 6.97 µM (inactive) | 3.33 µM (inactive) | 23.6 µM (inactive) | 2.11 µM (inactive) | 1.26 µM (inactive) | 2.3 µM (inactive) | 5.83 µM (inactive) | > 27.4 µM (inactive) |
| CC(=O)OC12CC(C)C3(O)C4C=C(C)C(=O)[C@@]4(O)CC(CO)=C[C@H]3C1C2(C)C (stereo not given in full) | > 100 µM (inactive) | > 1000 µM (inactive) | > 10 µM (inactive) | > 100 µM (inactive) | 2.34 µM (inactive) | > 10 µM (inactive) | 4.7 µM (inactive) | > 10 µM (inactive) | > 10 µM (inactive) | 4.21 µM (inactive) | > 10 µM (inactive) | 5.2 µM (inactive) | > 10 µM (inactive) | > 10 µM (inactive) | 0.41 µM (active) | > 10 µM (inactive) | > 10 µM (inactive) | > 10 µM (inactive) | > 10 µM (inactive) | > 10 µM (inactive) |
| CCN(CC)CCNc1ccc(C)c2sc3ccccc3c(=O)c12 [LUCANTHONE HYDROCHLORIDE] | 2.67 µM (inactive) | 1.27 µM (inactive) | 3.54 µM (inactive) | 6.5 µM (inactive) | 3.72 µM (inactive) | 1.57 µM (inactive) | 2.85 µM (inactive) | 3.4 µM (inactive) | 4.36 µM (inactive) | 3.64 µM (inactive) | 3.09 µM (inactive) | 2.17 µM (inactive) | 5.81 µM (inactive) | 1.66 µM (inactive) | 2.23 µM (inactive) | 1.9 µM (inactive) | 6.08 µM (inactive) | 1.49 µM (inactive) | 3.33 µM (inactive) | 3.05 µM (inactive) |
| C=C1C(=O)[C@]23[C@H](O)[C@H]1CC[C@H]2[C@@]12CO[C@@]3(O)C[C@@H]1C(C)(C)CC[C@@H]2O [MEGATHYRIN A] | 7.85 µM (inactive) | 7.11 µM (inactive) | 4.84 µM (inactive) | > 25 µM (inactive) | 9.75 µM (inactive) | 13.8 µM (inactive) | 8.47 µM (inactive) | 8.57 µM (inactive) | 4.37 µM (inactive) | 8.69 µM (inactive) | 6.22 µM (inactive) | 13 µM (inactive) | 6.34 µM (inactive) | 6.01 µM (inactive) | 7.45 µM (inactive) | 7.4 µM (inactive) | 11.5 µM (inactive) | 4.25 µM (inactive) | 7.4 µM (inactive) | > 25 µM (inactive) |
